According to patent publication US7368578B2, “Five-membered heterocyclic compounds” (Takeda Pharmaceutical Company Limited, priority 2002, dated 2008):

Tests used:
[1] = biological target: T1, human PPARγ1 (Homo sapiens, UniProt P37231); experiment: Human PPARγ1 antagonist assay (luciferase reporter in PPARγ:RXRα:4ERPP/CHO-K1 cells); type: cell-based; conditions: test compound 10^−6 M, 10 nM compound A as stimulant, luciferase activity, 24 hrs, read-out: Inhibitory rate (%)
T1 construct: expressed in transfected cells; host or cells: CHO-K1 cells stably transfected with pVgRXR2-hPPARγ and reporter plasmid pGL3-4ERPP-TK neo
T1 sequence (P37231 1-477 isoform P37231-2): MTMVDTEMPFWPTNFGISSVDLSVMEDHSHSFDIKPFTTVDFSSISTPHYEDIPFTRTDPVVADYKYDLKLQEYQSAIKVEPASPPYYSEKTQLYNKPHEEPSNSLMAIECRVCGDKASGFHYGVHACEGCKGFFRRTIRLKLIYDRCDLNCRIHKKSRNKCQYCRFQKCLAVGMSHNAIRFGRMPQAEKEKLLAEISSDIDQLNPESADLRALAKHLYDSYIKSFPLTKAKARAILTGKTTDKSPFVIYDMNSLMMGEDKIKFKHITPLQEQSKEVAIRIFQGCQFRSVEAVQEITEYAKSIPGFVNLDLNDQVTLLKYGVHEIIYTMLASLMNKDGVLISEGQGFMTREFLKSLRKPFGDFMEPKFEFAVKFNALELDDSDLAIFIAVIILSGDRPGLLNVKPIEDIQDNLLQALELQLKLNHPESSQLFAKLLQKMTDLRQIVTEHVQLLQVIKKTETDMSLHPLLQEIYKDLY
T1 sequence (P19793 1-462 partner): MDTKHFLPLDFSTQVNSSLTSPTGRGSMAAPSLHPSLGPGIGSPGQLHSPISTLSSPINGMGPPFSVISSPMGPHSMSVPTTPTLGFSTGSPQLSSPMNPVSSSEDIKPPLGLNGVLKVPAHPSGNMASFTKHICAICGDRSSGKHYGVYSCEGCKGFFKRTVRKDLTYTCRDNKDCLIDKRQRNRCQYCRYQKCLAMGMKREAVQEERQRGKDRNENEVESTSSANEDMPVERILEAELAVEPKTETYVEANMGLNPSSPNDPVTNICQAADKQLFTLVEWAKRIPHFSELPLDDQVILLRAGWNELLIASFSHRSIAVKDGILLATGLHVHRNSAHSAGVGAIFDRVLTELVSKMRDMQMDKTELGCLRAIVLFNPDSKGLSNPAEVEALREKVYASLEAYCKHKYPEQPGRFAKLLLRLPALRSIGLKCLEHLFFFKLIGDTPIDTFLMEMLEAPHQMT

inhibition at 1 µM [1]: 103% | melting point: 194 to 196 °C
Structure (SMILES): CCn1cnc(/C=C/c2cn(-c3ccccc3)nc2OCc2ccc(OCc3nc(-c4ccc(CC(=O)O)cc4)oc3C)c(OC)c2)c1 [Example 344, (4-{4-[(4-[({4-[(E)-2-(1-ethyl-1H-imidazol-4-yl)ethenyl]-1-phenyl-1H-pyrazol-3-yl}oxy)methyl]-2-methoxyphenoxy)methyl]-5-methyl-1,3-oxazol-2-yl}phenyl)acetic acid]
